From patent US9782393B2, “Pharmaceutical compositions and methods for treating cancer and biomarkers for drug screening” (NATIONAL DEFENSE MEDICAL CENTER, priority 2013, dated 2017)
Read-outs that look alike come from different tables or passages of the source.

Experiments:
pDAPK^S308 = format: cell-based, Human; conditions: ACHN cells; PP2A inhibitor, various concentrations, provided 30 minutes prior to the combination drugs
Experimental: (§1) Cells were cultured as described in example 1, washed with phosphate buffered saline (PBS), and stained with annexin V-FITC and propidium iodide (PI) for 15 minutes. The presence of fluorescent Annexin V as well as propidium iodide (PI) was detected by flow cytometry so as to determine whether the cell death is caused by apoptosis or necrosis. The expression of c-Raf and DAPK as well as the phosphorylation status of DAPK were examined by Western blot and immunoprecipitation using antibodies. Anti-DAPK antibodies or non-immune rabbit IgG (IP: immunoglobulin) were included as negative controls, and cell survival was measured by SRB assay, as shown in example 1. In this experiment, ACHN cells were treated separately with DMSO (as a control group), 5 μM sorafenib, 10 μM GW5074, or combination therapy of 5 μM sorafenib and 10 μM GW5074 for 24 hours.

ACHN cells [1] = test: Annexin V-FITC / propidium iodide flow cytometry, cell necroptosis; format: cell-based, Human; conditions: 24 hours, 5 μM sorafenib, 10 μM GW5074, or both
Experimental: as §1, with “1.” for “1. In this experiment, ACHN cells were treated separately with DMSO (as a control group), 5 μM sorafenib, 10 μM GW5074, or combination therapy of 5 μM sorafenib and 10 μM GW5074 for 24 hours.”

ACHN cells [2] = test: ACHN xenograft in immunodeficient mice, tumor volume; format: in vivo; conditions: printed as 5 μM sorafenib, 10 μM GW5074, separate or combined; once a day for three weeks; n=8
Experimental: Six-week old immnunodeficient male mice (BALB/cAnN.Cg-Foxn1^nu/CrlNarl) with an average weight of 20 grams were xenografted with 1×10^7 ACHN cells to the right by […]. The mice were maintained in a specific pathogen-free (SPF) environment. The size of tumor was measured using a digital caliper twice a week and tumor volume was calculated by the equation of length*width*height*0.5. […] A total of four groups were included in the experiment: a control group which received only vehicle (DMSO), […], 25 mg/kg GW5074, […], respectively, with 8 mice in each group.

ACHN cells [3] = test: SRB assay, growth inhibition of ACHN cells; format: cell-based, Human; conditions: 5 μM sorafenib, 10 μM GW5074, single or combined, 24 hours
Experimental: Human renal carcinoma (ACHN) cells were cultured in Eagle MEM (Minimum Essential Medium) with 10% FBS (Fetal Bovine Serum) and 1% penicillin/streptomycin. Sulforhodamine B (SRB) is a negative […] with a sulfonic acid group and binds to basic amino acids of intracellular proteins in weak acidic conditions. The SRB […] was extracted from cells using weak alkaline solution and then subjected to absorbance measurement. The amount of intracellular proteins, which is an indicator for cell survival, can be calculated from the amount of SRB. ACHN or A498 cells were treated singularly with 2.5 μM sorafenib, 5 μM sorafenib, 10 μM sorafenib, GW5074, L779450 or PLX4720 for 24, 48 and 72 hours, followed by SRB assay to assess cell survival. Alternatively, ACHN cells were pre-treated with 10 μM GW5074, 10 μM L779450 or 10 μM PLX4720 for 30 minutes prior to 5 μM sorafenib treatment for additional 24, 48 and 72 hours, followed by SRB assay to assess growth inhibition.

[4] = 10 mg/kg sorafenib, 25 mg/kg GW5074, or both

Experimental for Luc-ACHN-LL cells: Immunodeficient male mice was injected with 3×10^5 Luc-ACHN-LL cells in 50 μL PBS at the right renal capsule. In vivo luciferase activity was examined every day for up to three weeks so as to assure no leakage of cancer cells at the kidneys immediately after injection and to monitor metastasis of these cancer cells. Two to five minutes before utilizing the IVIS Xenogene system, 75 mg/kg D-Luciferin (Xenogen) in PBS was injected to the retro-orbital sinus of each mouse. Two weeks after injection of Luc-ACHN-LL cells, IVIS Xenogene system was used to monitor transfer of biological fluorescent images and to calculate the intensities of the photon signals (photons/s/cm^2/steradian). A total of five groups were included in the study: a control group which received only vehicle, and four test groups which respectively received 10 mg/kg sorafenib, 25 mg/kg GW5074, a combination therapy of 10 mg/kg sorafenib and 25 mg/kg GW5074 (the animals were fed with Sor 30 min post i.p. injection of GW), or 60 mg/kg sorafenib.

Structure (SMILES)	inhibition of dephosphorylation of pDAPK^S308 under combination therapy (pDAPK^S308)	average cell necroptosis rate (ACHN cells [1]) [%]	xenografted tumor volume, inhibition effect (ACHN cells [2])	growth inhibition of cells (ACHN cells [3])	death within weeks following injection of cancer cells (survival) (Luc-ACHN-LL cells; [4]) [weeks]	death within weeks following injection of cancer cells (survival) (Luc-ACHN-LL cells; high-dose 60 mg/kg sorafenib) [weeks]	body weight (Luc-ACHN-LL cells; mouse, in vivo, 60 mg/kg)
C=C1[C@@H](O)[C@@H]2O[C@]3(CC[C@H](/C=C/[C@@H](C)[C@@H]4CC(C)=C[C@@]5(O[C@H](C[C@@](C)(O)C(=O)O)CC[C@H]5O)O4)O3)CC[C@H]2O[C@@H]1[C@@H](O)C[C@H](C)[C@H]1O[C@@]2(CCCCO2)CC[C@H]1C [Okadaic acid]	effective in inhibition of dephosphorylation of pDAPK^S308						
CNC(=O)c1cc(Oc2ccc(NC(=O)Nc3ccc(Cl)c(C(F)(F)F)c3)cc2)ccn1 [sorafenib]		0.77	nearly no inhibition effect	no growth inhibition	≤ 8	≤ 10	loss of weight
O=C1Nc2ccc(I)cc2/C1=C/c1cc(Br)c(O)c(Br)c1 [GW5074, 3-(3,5-Dibromo-4-hydroxy-benzylidene)-5-iodo-1,3-dihydro-indol-2-one]		1.35	nearly no inhibition effect	no growth inhibition	≤ 5		
